Patent US10849875B2, “Cancer specific lipid targeted peptidomimetics” (University of Houston System, priority 2015, dated 2020)
Blank lines part the entries; values can stand above or below the molecule they belong to. Positions of bridges follow the written chain, without caps; N, C: chain ends. Non-standard residues stand in square brackets, D forms with d. Residues, ends and D or L forms follow the SMILES beside them. Chains are numbered I, II in the order given. Gly(N-piperonyl) = O=C(O)CNCc1ccc2c(c1)OCO2; N(4-MeOBn)Gly = COc1ccc(CNCC(=O)O)cc1; Nrpe = C[C@@H](NCC(=O)O)c1ccccc1; Nlys = NCCCCNCC(=O)O; βAla = NCCC(=O)O

Experiments:
[1] = tested on: breast cancer; conditions: cited from earlier work
[2] = complexes with beta2-glycoprotein 1; cited from earlier work
[3] = tested on: non-small cell lung cancer (NSCLC); conditions: in combination with carboplatin and paclitaxel (11/17); cited from earlier work
[4] = Propidium iodide test of cell lysis; format: cell-based; conditions: non-permeabilized cells
[5] = tested on: tumor vascular endothelium of subcutaneous HCC4017 tumors; assay: In vivo vascular disrupting effect; design: species or system mice; conditions: 20 μg i.v., 24 hours
Method: The in vivo vascular disrupting effects of PPS1-D2 were explored. Mice bearing HCC4017 tumors growing subcutaneously were injected i.v. with 20 μg of PPS1-D2. Twenty four hours later, the tumors were removed, cryosectioned, and stained for CD31 to detect vascular endothelium. […] This dose can be calculated to give an initial blood concentration that is roughly 10-fold higher than needed for maximal lysis of PS-expressing cell in vitro.

[6] = Toxicity of PPS1-D2 to mice; format: in vivo
[7] = tested on: HCC4017, H460, HCC95, H1693, H1395 lung cancer cell lines; assay: Cell staining with Hoechst 33342 and propidium iodide (membrane integrity); format: cell-based, human; conditions: 0.005% Benzalkonium chloride
Method: It was evaluated how PPS1D1 affects viability of these PS expressing cancer cell lines. While there are difficulties of narrowing down the exact mechanism of action of a compound targeting cell membrane lipids, whether PPS1D1 has any effect on cell membrane integrity was evaluated. Cells were treated with standard DNA staining dyes Propidium iodide (PI) and Hoechst 33342. While both bind DNA, only Hoechst is cell permeable. Therefore, when treating live cells only Hoechst will stain the nucleus while PI will stain the nucleus only if the cell membrane integrity is compromised. All the lung cancer cell lines and normal HBEC30KT cells were treated with these dyes in the presence of PPS1D1 (at 1 μM and 20 μM) or a control compound PC462D1 at 20 μM and evaluated fluorescence by microscopy without fixation. […] These observations indicate that 20 μM PPS1D1 is selectively cytotoxic to PS-positive lung cancer cells.
10,000 cells of HCC4017, H460, HCC95, H1693,H1395 and HBEC30KT were plated on chamber slides (Lab-Tek, Thermo Fisher, MA). On second day, cells were treated with PPS (1 μM and 20 μM), control PC462D1 (20 μM) and 0.005% Benzalkonium chloride (BAC) in RPMI medium with 10% FBS containing 3% BSA (KSFM media with 3% BSA for HBEC30KT). Chamber slides were washed with PBS three times. Cells were then stained with Hoechst 33342 (10 μg/ml) for 30 min in dark. Chamber slides were washed with 3× PBS. Cells were then stained with propidium iodide (1 mg/ml) for 15 mins. Cells were washed with 3× PBS and imaged using Fluorescence Microscope (Olympus BX-53).

[8] = tested on: H460 xenografts; assay: Inhibition of growth of H460 lung cancer xenograft; format: in vivo, mice
Method: Whether PPS1D1 would inhibit tumor growth in a murine model was examined. H460 cells were implanted in nude mice. Tumors were allowed grow until it reach […]. These xenografts were then treated with a daily dose of […] in four different groups that consist of PPS1D1 alone, docetaxel alone, PPS1D1 and docetaxel together or with the control peptoid (PC462D1) alone. Docetaxel is a standard chemotherapeutic treatment for non-small cell carcinoma. The activity of PPSD1 and its ability to work as a combination treatment were examined. […] This effect was extremely potent and the tumor growth was completely controlled. […] It has been reported that chemotherapy and radiation therapy increase the PS flipping in tumor microenvironment. Therefore, Docetaxel might have helped improve binding of PPS1D1 on cancer cell surface that is now displaying an increased amount of PS to be targeted. After the standard chemotherapy and radiation therapy, the target PS is highly abundant for the drug to recognize and attack.
The effect of PPS1D1 on the growth of H460 xenografts implanted in NOD/SCID immunodeficient mice was examined. Immunodeficient animals were chosen to facilitate the growth of human tumor xenografts. […] Therapy with a control peptoid (PC462D1, 0.25 mg/mouse, 3×/week ip), PPS1D1 (0.25 mg/mouse, 3×/week ip), docetaxel (0.5 mg/kg, 2×/week, ip) or the combination of PPS1D1+docetaxel was initiated when tumors were ˜100 mm3 in volume. […] Tumor tissue was harvested after 4 weeks of therapy and assessed for cell proliferation and apoptosis by immunohistochemistry. […] It is clear from studies with bavituximab that standard chemotherapy (e.g., taxanes) increases the exposure of PS resulting in elevated binding of the PS targeting agent. A similar mechanism can underlie the enhanced activity of docetaxel and PPS1D1.
All animals were housed in a pathogen-free facility with continuous access to food and water. Mice were purchased from the core breeding facility at UT Southwestern. Six to eight-week-old female NOD/SCID mice were injected with 2.5×10^6 H460 cells subcutaneously. Tumor volume was followed by twice weekly measurements with Vernier calipers. Animals were randomized and treatment was initiated with mean tumor volume of each group was 100 mm3. Four different groups used were: (I) control PC462D1, (II) PPS1D1, (III) docetaxel, and (IV) combination of PPS1D1+docetaxel. Mice (n=8/group) were treated with PPS1D1 or PC462D1 in saline by ip injection at a dose of 0.25 mg/mouse, 3 times per week on a M-W-F schedule. Docetaxel from the UT Southwestern Clinical pharmacy was diluted in saline and delivered 2×/week ip at 5 mg/kg. Animals were sacrificed after 4 weeks of therapy. Tumor tissue was snap frozen, sectioned and stained with antibodies specific for phospho-Histone H3 (Millipore, #06-570) and cleaved caspase 3 (Cell Signaling, #9664). Reactivity was developed with appropriate fluorescently conjugated secondary antibodies (Jackson ImmunoResearch) and mounted with Prolong Gold with DAPI (Invitrogen), coverslipped and evaluated by fluorescence microscopy.

[9] = Annexin V / PPS1 competition on liposomes by flow cytometry; format: binding; conditions: unlabeled Annexin V 50 nM
Method: (§1) Multiple competition assays were conducted to determine whether PPS1 (or PPS1D1) competes with Annexin V, a known PS binding agent. […] Competition between Annexin V and PPS1 for binding to PS in liposomes using flow cytometry was evaluated. […] However, PPS1 directly binds PS. Also, PS-ligand binding may be much more complex than that of a typical protein-ligand binding. Typical protein ligand binding occurs via a defined binding pocket, which facilitates clear competition by other ligands that interact with the same binding pocket. But PS is a lipid in a fluid membrane, which has no defined macromolecular structure further complicating possible binding modes.
Unlabeled Annexin V vs FITC-PPS1 competition. 0.1 mM liposomes (85 mol % POPC, 15 mol % DOPS) were incubated with incubated with 50 nM Annexin V in Binding Buffer (0.01 M HEPES/NaOH (pH 7.4), 0.14 M NaCl, and 2.5 mM CaCl2) with 3% BSA for lhour. FITC PPS1 was added and the solution was incubated for 1 hour at room temperature. The binding of FITC-PPS1 to liposomes was analyzed by BD Accuri™ C6 flow cytometer (Becton-Dickinson, NJ). All data were analyzed using BDAccuriC6 software.
Unlabeled PPS1 vs FITC-Annexin V competition. […] The binding of FITC-Annexin V to liposomes was analyzed by BD Accuri™ C6 flow cytometer (Becton-Dickinson, NJ). All data were analyzed using BDAccuriC6 software.

[10] = On-bead competition assay; format: binding; conditions: Annexin V at 10, 50 and 100 nM
Method: Experimental procedure 12: On-bead competition assay. PPS1 and PC462 were synthesized on Tentagel beads. Organic solvent was removed and the beads were washed with 3 times with PBS. The beads were then incubated with PBS containing 3% BSA for 1 hour at room temperature. These beads were then incubated with 0.1 mM liposomes (84 mol % POPC, 15 mol % DOPS and 1 mol % NBD) for 2 hours at room temperature. Beads containing liposomes were the washed with binding buffer 3 times. […] Beads were then washed with binding buffer and imaged using fluorescence Microscope (Olympus BX-53).

[11] = calcium-dependent; cited from earlier work
[12] = Annexin V competition on lipid ELISA; format: binding; conditions: ELISA-like, 100 nM Annexin V
Method: as §1
Lipids (Avanti Polar Lipids) were dissolved in chloroform at 10 μg/ml and coated on to Immulon 1B “U” bottom microtiter plates (ThermoFisher, MA). Chloroform was evaporated at room temp (in the hood) and plates were blocked with 200 μl of 1% BSA for 1 hour. Plates were washed with 3× PBS. Biotinylated PPS1D1 dissolved in blocking buffer was added and incubated for 1 hour at room temp. Plates were washed with 3× PBS and 2× Annexin binding buffer. […] Binding was detected with streptavidin-HRP (1:1000 in blocking buffer) followed by 100 μl OPD (Sigma-Aldrich, MO). The reaction was stopped with 100 μl 0.18M H2SO4 and absorbance was read at 490 nm using the spectrophotometer (Spectramax i3, Molecular Devices, CA).

Molecule: Bavituximab: human-mouse chimeric antibody targeting PS via beta2-glycoprotein 1
objective response ([1]; combination of bavituximab and docetaxel, phase II (28/46)): 61%
Kd [2]: 400 pM
objective response [3]: 65%

Molecule: COc1ccc(CN(CC(=O)N(CCCCN)CC(=O)N[C@@H](CCCCN)C(=O)N[C@H](CCCCN)C(=O)N[C@@H](CCSC)C(=O)NCCC(=O)NCCCC[C@H](NC(=O)CCNC(=O)[C@H](CCSC)NC(=O)[C@@H](CCCCN)NC(=O)[C@H](CCCCN)NC(=O)CN(CCCCN)C(=O)CN(Cc2ccc(OC)cc2)C(=O)CN(C(=O)CN(Cc2ccc3c(c2)OCO3)C(=O)CN[C@H](C)c2ccccc2)[C@H](C)c2ccccc2)C(N)=O)C(=O)CN(C(=O)CN(Cc2ccc3c(c2)OCO3)C(=O)CN[C@H](C)c2ccccc2)[C@H](C)c2ccccc2)cc1 [PPS1-D2] (I: H-[Nrpe][Gly(N-piperonyl)][Nrpe][N(4-MeOBn)Gly][Nlys]K[dK]M[βAla]K-NH2 / II: H-[Nrpe][Gly(N-piperonyl)][Nrpe][N(4-MeOBn)Gly][Nlys]K[dK]M[βAla]; amide I:10-II:C; N-terminus assumed)
nuclear staining by propidium iodide [4]: nuclear staining happens only when PPS1-D2 is treated
disruption of tumor vascular endothelium (CD31) [5]: disrupted tumor endothelium
signs of toxicity ([6]; mice treated with 50 μg): no signs of toxicity
MTD ([6]; mouse, in vivo): 2 to 4 mg/kg

Molecule: Benzalkonium chloride [BAC, reference compound]
PI staining of cells [7]: PI-positive nuclei

Molecule: CC(=O)O[C@@]12CO[C@@H]1C[C@H](O)[C@@]1(C)C(=O)[C@H](O)C3=C(C)[C@@H](OC(=O)[C@H](O)[C@@H](NC(=O)OC(C)(C)C)c4ccccc4)C[C@@](O)([C@@H](OC(=O)c4ccccc4)[C@H]21)C3(C)C [docetaxel, reference compound]
tumor growth (tumor volume vs days post therapy initiation) ([8]; H460 in NOD/SCID mice, peptoids 0.25 mg/mouse 3x/week ip, docetaxel 0.5 mg/kg 2x/week ip): slowed tumor growth
tumor size reduction ([8]; H460 in nude mice, daily dose of 0.5 mg/mL): equally effective in reducing the size of the tumors
response rate ([1]; docetaxel alone, separate study): 41%

competition with FITC-PPS1 binding to liposomes [9]: did not compete
competition with PPS1D1 for binding to PS [12]: did not compete
Molecule: Annexin V: 35.8 kDa protein that binds PS in a calcium-dependent manner
removal of liposomes from PPS1 beads [10]: None of these conditions were able to remove liposomes from beads
affinity for PS [11]: nanomolar affinity
